Measurements published in patent US5112806A, “Antibiotic, mersacidin, a process for the preparation thereof and the use thereof as a pharmaceutical” (Hoechst Aktiengesellschaft, priority 1988, dated 1992).

Assays:
[1] = physchem; conditions: water
Description: These salts can be prepared by the treatment of mersacidin with 1.0 equivalent of the corresponding alkali metal hydroxide in the presence of pyridine. For example, mersacidin (50 mg) was dissolved in 1 ml of pyridine, the solution cooled to 0° C. and a solution of 1.683 mg of KOH in 3 ml of distilled water was added under stirring.

[2] = system: S. epidermidis 32965; assay: MIC, growth inhibition in vitro; type: cell-based; conditions: Table 5
[3] = system: S. aureus 710; assay: MIC, growth inhibition in vitro; type: cell-based; conditions: Table 5
Text: (§1) The biological properties of mersacidin as the MIC values required for inhibition of the growth of various microorganisms are listed in Table 3.

[4] = system: Staphylococcus aureus 209P; assay: MIC, growth inhibition in vitro; type: cell-based; conditions: Table 5
Text: as §1

[5] = system: S. aureus R 85; assay: MIC, growth inhibition in vitro; type: cell-based; conditions: Table 5
Text: as §1

[6] = system: S. aureus 3066; assay: MIC, growth inhibition in vitro; type: cell-based; conditions: Table 5
Text: as §1

[7] = system: S. aureus 25923; assay: MIC, growth inhibition in vitro; type: cell-based; conditions: Table 5
[8] = system: S. epidermidis 823; assay: MIC, growth inhibition in vitro; type: cell-based; conditions: Table 5
[9] = system: Streptococcus faecalis 21777; assay: MIC, growth inhibition in vitro; type: cell-based; conditions: Table 5
[10] = system: S. aureus E 710 (MRSA); assay: In vivo activity against S. aureus E 710 (MRSA) in mice; conditions: S. aureus E 710 (Methicillin resistant), 1 × 10^10 CFU/mouse
Description: On subcutaneous administration in a dose of 9.37 and 25.00 mg/kg to laboratory mice infected experimentally with Staphylococcus aureus SG 511 and S. aureus 710 (resistant to methicillin), […]. […]

[11] = system: Streptococcus pyogenes A 77; assay: In vivo activity against Streptococcus pyogenes A 77 infection in mice; conditions: Streptococcus pyogenes A 77, 3,8 × 10^3 CFU/mouse
Text: (§2) In vivo activity of potassium mersacidin against S. aureus
(§3) and Streptococcus pyogenes A 77 infection in mice

[12] = system: S. aureus SG 511; assay: In vivo activity against S. aureus SG 511 infection in mice; conditions: S. aureus SG 511 (Methicillin sensitive), 1,75 × 10^9 CFU/mouse
Description: On subcutaneous administration in a dose of 9.37 and 25.00 mg/kg to laboratory mice infected experimentally with Staphylococcus aureus SG 511 and S. aureus 710 (resistant to methicillin), […].
In vivo activity of mersacidin against S. aureus SG 511
infection in mice compared with vancomycin.
Inoculation medium used: 1.75 × 10^9 CFU/mouse

[13] = system: Streptococcus hominis ML 22; assay: MIC, growth inhibition in vitro; type: cell-based; conditions: Table 5
[14] = system: Streptococcus faecalis 29212; assay: MIC, growth inhibition in vitro; type: cell-based; conditions: Table 5
[15] = system: S. haemolyticus 712; assay: MIC, growth inhibition in vitro; type: cell-based; conditions: Table 5
[16] = system: S. haemolyticus 809; assay: MIC, growth inhibition in vitro; type: cell-based; conditions: Table 5
[17] = system: S. aureus C 31153; assay: In vivo activity against S. aureus C 31153 infection in mice; conditions: S. aureus C 31153 (Methicillin & Caphalexin resistant), 2 × 10^9 CFU/mouse
Text: as §2, §3

C=C1NC(=O)[C@@H]2NC(=O)[C@H](CC(C)C)NC(=O)[C@H](NC(=O)[C@@H]3CS[C@@H](C)[C@@H](NC(=O)[C@H](Cc4ccccc4)NC(=O)[C@@H]4NC(=O)[C@@H](N)CS[C@H]4C)C(=O)N[C@@H](CC(C)C)C(=O)N4CCC[C@H]4C(=O)NCC(=O)NCC(=O)NCC(=O)NCC(=O)N[C@@H](C(C)C)C(=O)N3)[C@H](C)SC[C@H](NC(=O)[C@H](CCC(=O)O)NC1=O)C(=O)N[C@@H]([C@@H](C)CC)C(=O)N/C=C\S[C@H]2C [potassium mersacidin]
solubility [1]: ≥ 160 mg/mL
MIC values [2]: 6 µg/mL
MIC values [3]: 1 µg/mL
MIC values [4]: 2 µg/mL
MIC values [5]: 2 µg/mL
MIC values [6]: 10 µg/mL
MIC values [7]: 8 µg/mL
MIC values [8]: 50 µg/mL
MIC values [9]: 15 µg/mL
50% Effective Dose (ED50) [10]: 6,72 mg/kg × 3, s.c.
50% Effective Dose (ED50) [11]: 0,46 mg/kg × 3, s.c.
50% Effective Dose (ED50) [12]: 2,85 mg/kg × 3, s.c.
MIC values [13]: 10 µg/mL
MIC values [14]: 15 µg/mL
MIC values [15]: 10 µg/mL
MIC values [16]: 4 µg/mL
50% Effective Dose (ED50) [17]: 15,35 mg/kg × 3, s.c.
